We go through five molecules from publication PMC4949444 (Scientific Reports, 2016).

The subject of series [1] is 3NP-lesioned C57BL/6 mice. The experiment in a line: 3-nitropropionic acid (3NP) model of Huntington's disease. The series is classed as in vivo. Particulars: for COX-2 (2expΔΔct) / IL-6 (2expΔΔct) / TNF-α (2expΔΔct): striatum mRNA, mean ± SEM n=6; for COX-2 (2expΔΔct) / IL-6 (2expΔΔct) / TNF-α (2expΔΔct) / % GSH / % SOD activity / %Catalase activity: substance alone; for % GSH / % SOD activity / %Catalase activity: striatum, % of vehicle-treated control. How it is done: Figure 7 VCE-003.2 is neuroprotective in 3NP-intoxicated mice. (a) Behavioural score was determined 12 hours after 3NP intoxication. Mice were treated with VCE-003.2 (20 mg/Kg) alone or combined with T0070907 (5 mg/kg) as indicated. Animals were also treated separately with either VCE-003.2 or T0070907 alone. Hind limb clasping, general locomotor activity, hind limb dystonia and kyphosis were rated from 0 to 2 based on severity (score 0 indicates normal function and 2 indicates the most severe affected function). Values are expressed as means ± SEM (n = 6). (b) Representative images of Nissl staining performed on coronal striatal brain sections from the same mice groups. Photomicrographs of NeuN (Bar size, 50 μm) Iba-1 and glial fibrillary acidic protein (GFAP) immunostained sections through the different group of mice are also shown. (c) Quantification of the different markers was performed with Image J software. Total average number of neurons (NeuN^+), microglia (Iba1^+) and astrocytes (GFAP^+) is shown. Values are expressed as means ± SEM (n = 6). *p < 0.05, **p < 0.01, ***p < 0.001 vs. Vehicle; ^#p < 0.05, ^##p < 0.01, ^###p < 0.001 vs. 3NP; †p < 0.05, ^††p < 0.01, ^†††p < 0.001 vs. the 3NP + VCE-003.2 group.
Mice were housed under standard conditions (12-h light/dark cycle) in groups with access to food and water ad libitum. All experiments were performed in accordance with European Union guideline and approved by the Animal Research Ethic Committee of Córdoba University (2014PI/017) (3NP model) and by the Animal Research Ethic Committee of Complutense University (CEA-UCM 73/2012) (QA model). Procedures were designed to minimize the number of animals used and their suffering. Excitotoxicity was induced by intrastriatal quinolinic acid (QA) administration (100 nmol in 1 μL PBS solution, unilaterally) as previously described[41] at the following coordinates: +0.6 posterior to bregma, +1.85 medio-lateral and -2.7 dorso-ventral to dura, in 12-week-old CD1 male mice (Harlan Ibérica, Barcelona, Spain). Pharmacological manipulation with VCE-003.2 (10 mg/kg body weight) was performed i.p. daily in 2% Tween 20 and 3% DMSO in saline buffer until sacrifice. Control animals received the corresponding vehicle injections. Motor function was assessed by RotaRod analysis conducted with acceleration from 4 to 40 rpm over a period of 570 s in an LE8200 device (Harvard Apparatus, Barcelona, Spain). […] 3NP-treated animals and their respective non-lesioned controls (injected with PBS) were used for pharmacological studies with VCE-003.2. Treatments consisted of 4 i.p. injections every 24 h with 20 mg/kg VCE-003.2 or vehicle (4% DMSO plus 6,2% Tween 20 in saline buffer), with the first and the last injections 30 min before the first and the last injections of 3NP, respectively. In some experiments, mice received a combination of VCE-003.2 and the PPARγ antagonist T0070907 (5 mg/kg) injected 15 minutes before VCE-003.2. In 3NP-lesioned mice, motor activity, hindlimb clasping, dystonia, and truncal dystonia were evaluated following previously described procedures. All behavioural tests were conducted prior to drug injections to avoid acute effects of the compounds under investigation and all animals were euthanized 12 h after the last injection of 3NP and their brains removed. The right hemispheres were used to dissect the striatum which was frozen in RNAlater (Sigma-Aldrich) and stored at −80 °C for biochemical analyses. The left hemispheres were fixed in fresh 4% paraformaldehyde (in 0.1 M PBS) for 48 h at 4 °C and embedded in paraffin wax for staining and immunohistochemical analysis. In all experiments, at least 6 animals were used per experimental group.
Free floating coronal brain slices ([…]) were processed as previously described. […]

In series [2] the test system is Keap1/Nrf2 pathway. Nature of the series: Keap1/Nrf2 pathway activation (unpublished results).
The subject of series [3] is 3NP-lesioned mice. The note with it: cited from earlier work.
The test system of series [4] is N2a cells. The experiment in a line: N2a cytotoxicity assay (MTT). Format: cell-based. Particulars: 24 hours. On the procedure: Figure 1 VCE-003.2 synthesis and characterization. (a) Schematic representation of VCE-003.2 synthesis. […] The indicated concentrations were tested and results were plotted to obtain the polynomial trend on a logarithmic range. IC50 values are indicated within the graph. […]. HEK293 cells were co-transfected with GAL4-PPARγ and GAL4-luc and incubated with the indicated compound concentrations for 6 hours prior to luciferase activity determination. Results are expressed as the fold induction ± S.D. relative to untreated control. (d) N2a cells were incubated with VCE-003 and VCE-003.2 as indicated during 24 hours and cell viability was determined by the MTT assay. Results are expressed as percentage of cell viability against the negative control (100%). (e) N2a cells were pre-treated with the compounds for 30 min and incubated during 24 h with 15 mM glutamate and cell viability determined by MTT. Results are expressed as percentage of cell viability against the negative control (100%). All experiments are shown as mean ± S.D. from at least three independent experiments. Statistics: *^,#,†p < 0.05, **^,##,††p < 0.01 and ***^,###p < 0.001. […] | Briefly, N2a cells were seeded at a density of 1 × 10^3 cells/well in 96-well plates, treated with increasing concentrations of VCE-003 or VCE-003.2 for 24 hours and cell viability was measured by the MTT method. […]. […]

Series [5] can be described thus: Cysteamine recovery assay (thiol trapping). How it is done:
cysteamine to form polar and not extractable adducts.
(§1) Determination of ROS: N2a cells were seeded at 25x 10^3 cells/ml in 96-well plates and incubated with 0.25 ȝM 5-(and-6 )-chloro meth yl-2ƍ,7ƍ-dichlorodihydrofluorescein diacetate acet yl ester (C M-H 2 DCFDA) for 20 minutes at 37°C. Then, the cells were treated with either VCE-003 or VCE-003.2 for 2 hours. Cells exposed to pro-oxidant tert-Butyl h ydroperoxide (TBHP) were used as positive control. H 2 DCFDA oxidation was detected using an Incuc yteTM Live-Cell Imaging S ystem (Hertfordshire, UK).
(§2) Nrf2 transcriptional assay: To study Nrf2 transcriptional activity N2a cells were seeded (105/ml) in 24-well plates and transientl y transfected with the plasmid NQO1-ARE-Luc using Roti©-Fect following the manufacturer’s instructions (Carl Roth, Karlsruhe, German y). After 24 hours, cells were incubated wi th the compounds at the concentrations indicated during 6 hours and the luciferase activit y was determined using an Autolumat LB 953 (EG&G Berthold, Bad Wildbad, Germany). Protein content was determined b y the Bradford method to calculate R LU/Pg of protein and the results were expressed as a fold induction over untreated cells.

The test system of series [6] is N2a cells. Nature of the series: Reactive oxygen species production in N2a cells (CM-H2DCFDA). Format: cell-based. Particulars: 2 hours. On the procedure: as §1
Supplementary Figure S1. Non-elect rophilic activity for VCE-003.2. (a) Reactive ox ygen species production. N2a cells were stained with CM-H2DCFDA and treated with VCE-003 or VCE-003.2 for 2 hours. Then, reactive ox ygen sp ecies were measured b y In cu c yt e TM Liv e-Cell Im agin g S ystem. Results are ex pressed as m ean of t otal integrated intensity (ROS positive cells) ± S.D. (b) Effect on Nrf2 transcriptional activity.
VCE-003 treatment vers us Vehicle treated cells.

Series [7] relates to Nrf2 pathway. Nature of the series: Nrf2 transcriptional assay (NQO1-ARE-Luc) in N2a cells. The note with it: 6 hours. Format: cell-based. How it is done:
as §2
Supplementary Figure S1. Non-elect rophilic activity for VCE-003.2. (a) Reactive ox ygen species production.
In cu c yt e TM Liv e-Cell Im agin g S ystem. Results are ex pressed as m ean of t otal integrated intensity (ROS positive cells) ± S.D. (b) Effect on Nrf2 transcriptional activity. N2a cells were transientl y trans fected with the NQO1-ARE-Luc plasmid and incubated with the indicated compound concentrations for 6 hours prior to luciferase activit y determination.
Results are expressed as the fold induction ± S.D. relative to untreated control. All the results are representative of at least three independent experiments. Statistics: **p<0.01 VCE-003 treatment vers us Vehicle treated cells.

`O=C(O)CC[N+](=O)[O-]` [3NP, 3-nitropropionic acid, reference compound]: in series [1] (mice given the substance alone), the “behavioural score, substance alone” value was “high scores in hindlimb clasping, locomotor activity, hindlimb dystonia and kyphosis”; the “number of neurons in the striatum (Nissl, NeuN), substance alone” value is given as “reduced the number of neurons in the striatum”. Further, in series [1], the “COX-2 (2expΔΔct)” value was 4.69 ± 0.09^* 2expΔΔct, the “IL-6 (2expΔΔct)” value is recorded as 4.28 ± 0.08^* 2expΔΔct, the “TNF-α (2expΔΔct)” value was 5.19 ± 0.327^** 2expΔΔct and the “% GSH” value came to 67.16 ± 5.06%. Further, in series [1], the “% SOD activity” value is reported as 56.56 ± 1.05^** % and the “%Catalase activity” value is 58.85 ± 2.17^*** %.

For `C=C(C)[C@@H]1CCC(C)=C[C@H]1C1=C(O)C(=O)C(CCCCC)=CC1=O` [CBD-hydroxy-quinone], the “activation of the Keap1/Nrf2 pathway” value in series [2] was “activates the Keap1/Nrf2 pathway”.

`CCCCCc1cc(O)c(C/C=C(\C)CCC=C(C)C)c(O)c1` [CBG, cannabigerol]: in series [3], the “levels of GSH in the brain” value is recorded as “restores the levels of GSH in the brain of 3NP-lesioned mice”.

For the molecule `O=C(Nc1ccncc1)c1cc([N+](=O)[O-])ccc1Cl` [T0070907, reference compound], the “behavioural score, substance alone” value in series [1] (mice given the substance alone) is on record as “Neither VCE-003.2 nor T0070907 alone influenced the behavior of the animals”. For the same molecule, in series [1], the “COX-2 (2expΔΔct)” value is reported as 1.45 ± 0.82 2expΔΔct, the “IL-6 (2expΔΔct)” value is on record as 1.57 ± 0.51 2expΔΔct, the “TNF-α (2expΔΔct)” value is on record as 1.54 ± 0.75 2expΔΔct and the “% GSH” value turned out to be 115.82 ± 11.23%. Further, in series [1], the “% SOD activity” value is listed as 97.61 ± 27.44% and the “%Catalase activity” value turned out to be 92.18 ± 4.1%.

Consider `CCCCCC1=CC(=O)C(C/C=C(\C)CCC=C(C)C)=C(O)C1=O` [VCE-003, reference compound], for which the “cell viability / cytotoxic activity” value in series [4] is “clear cytotoxic activity at the highest concentrations tested”. Further, in series [5], the “recovery after treatment with cysteamine (thiol-trapping reactivity)” value is “undetectable in the residue”. In addition, in series [6], the “induction of reactive oxygen species (ROS)” value is given as “induced reactive oxygen species (ROS)”. Moreover, the “activation of the Nrf2 pathway” value in series [7] is on record as “activated the Nrf2 pathway”.
